{"source": "patent US6933282B2", "about": "“Regulation of tyrosine hydroxylase by GPE” (Neuren Pharmaceuticals Ltd., priority 1998, dated 2005)", "assay_type_in_all_cases": "in vivo, rat", "key": {"[1]": {"test_system": "tyrosine hydroxylase (TH)", "assay": "Example 1: TH immunopositive neuron count in SNc after 6-OHDA lesion, GPE given 2 hours later", "settings": "lesioned (right) side; 3 μg GPE via guide cannula 2 hours after 6-OHDA; 14 days; 3 levels of SNc; vs vehicle; FIG. 1", "method": "This experiment was blind with respect to the treatment (with GPE or the vehicle) and with respect to the counting of neurons expressing TH (between sections from animals treated with GPE or vehicle).\n(§1) The objective of this experiment was to determine the effects of administering GPE on the expression of tyrosine hydroxylase (TH) in the presence or absence of CNS injury. […] Specifically, 9 pairs of adult male Wistar rats (280-320 g) were prepared under 3% halothane/O2 anaesthesia. The oxygen free radical producing neurotoxin 6-hydroxydopamine (6-OHDA) which produces degeneration of dopamine neurones (8 μg/2 μl) was injected into the median forebrain bundle using a 30 gauge needle (coordinates: anterior-posterior +4.7 mm, right +1.6 mm, vertical −8.5 mm). A guide cannula was placed on the dura 7.5 mm anterior from stereotaxic zero and 1.5 mm from the midline on the right. The rats were left to recover at room temperature. 2 hours after the administration of 6-OHDA the rats were treated, via the guide cannula, with 3μg GPE or vehicle alone (15μl injected with a pump rate of 2 μl/minute, 0.1M acetate buffer [pH6], diluted 10 times in 0.1 bovine serum albumin in 0.1M phosphate buffered saline [PBS][pH7.31]). […]\n(§2) The total counts of neurons were compared between the GPE and the vehicle treated group. Data were analysed with paired t-test and presented as mean±sem."}, "[2]": {"test_system": "tyrosine hydroxylase (TH)", "assay": "Example 4: survival of TH immunopositive nigral neurons after medial forebrain bundle transection", "settings": "lesioned side; daily supranigral GPE 0.3 μg/μl, 1 μl, for two weeks after MFB transection; ipsilateral/contralateral; FIG. 5", "method": "Adult male Wistar rats (200-220 g) were anaesthetized with 75 mg/kg Nembutal and positioned in a stereotaxic apparatus. Unilateral transection of the medial forebrain bundle which contains the ascending nigral dopaminergic projection fibers was made 1.3 mm rostral to the rostral tip of the SNc using a retractable wire knife (David Kopf Instruments, Tujunga, Calif.). The knife was lowered into the brain using the following coordinates from the atlas of Paxinos and Watson (1986), Sydney: Academic Press: 3.3 mm posterior to Bregma, 2.4 mm lateral from midline, and 8.5 mm ventral from skull, the blade was extended 2.0 mm toward midline, raised 2.5 mm dorsally, retracted and extended again, and then returned 2.5 mm ventrally. The wire blade was retracted and the knife withdrawn. Next, a 22-gauge metal guide cannula was permanently fixed into place supranigrally at 5.0 mm posterior to Bregma, 2.0 mm lateral to midline, and 6.8 mm ventral to skull. […]\nImmunopositive cells were counted in the central SNc Counts were made ventral and lateral to the lemniscus medialis, including both the pars compacta and pars reticulata, but excluding the ventral tegmental area in the ventromedial midbrain and the retrorubral field in the caudolateral midbrain. […] To reveal percent survival, percent changes were calculated by dividing the ipsilateral value by contralateral value."}, "[3]": {"test_system": "tyrosine hydroxylase (TH)", "assay": "Example 3: TH immunostaining density and TH positive neuron number in SNc after 6-OHDA lesion", "method": "A paired experimental design was used and the experimenter was blinded to the treatment groups. Eighteen male Wistar rats (50-60 days old, 280-310 g) were used for this study. 6-hydroxy dopamine (6-OHDA) was prepared as 8 μg in a base of 2 μl 0.9% saline containing 1% ascorbic acid. It was administered into the right medial forebrain bundle (MFB) using coordinates of AP+4.7 mm, R 1.6 mm, V−8 mm under anaesthesia of 3% halothane. 6-OHDA was injected into the right MFB using a Hamilton syringe (100 μl with a 30G needle) controlled by a microdialysis infusion pump at an infusion rate of 0.2 μl/minute. The infusion needle was then slowly withdrawn 5 minutes after the infusion. […] Briefly, a guide cannula (21G, 6 mm) was fixed on the top of the dura with coordinates of AP+7.5 mm, R 1.5 mm immediately after the injection of 6-OHDA. Either GPE (3 μg/15 μl) or its vehicle were infused into the right lateral ventricle 2 hours later at an infusion rate of 2 μl/minute. Rats were then housed in a holding room with food and water ad libitum for the next 2 weeks.\nThe rats were then deeply anaesthetized with an overdose of pentobarbital and transcardially perfused with normal saline followed by 10% buffered formalin. The brains were removed from the skull and kept in the same fixative for the next 48 hours. A standard paraffin tissue preparation was used to process the tissue so that it could be used for immunohistochemistry. Coronal sections (8 μm) were cut using a microtome, and the sections were mounted on chrome alum coated microscopy slides and air-dried. SNc sections used for immunohistochemical staining were deparaffinized, rehydrated and washed in PBS (0.1M). The sections were then pretreated with 1% H2O2 for 20 minutes, washed with 0.1M PBS (3×5 minutes) and incubated with rabbit polyclonal antisera raised against tyrosine hydroxylase (Protos Biotech, USA) diluted 1:500 with 1% goat serum for 48 hours at 4° C. The sections were washed in PBS (3×5 minutes) and incubated with donkey anti-rabbit biotinylated secondary antibody (1:200, Amersham, Life Science) overnight at room temperature. The sections were washed, incubated in streptavidin-biotinylated horseradish peroxidase (1:200, Amersham, Life Science) for 3 hours, washed again in PBS and then reacted in 0.05% 3,3-diaminobenzidine tetrahydrochloride (DAB) and 0.01% H2O2 to produce a brown reaction product. The sections were dehydrated in a graded alcohol series, cleared in xylene and coverslipped with mounting medium.\nThe average density from the background was also measured. The analyst was blinded to the treatment and control groups. The difference in average density between the background and TH immunostaining was calculated and used for data analysis. […]"}, "[4]": {"test_system": "tyrosine hydroxylase (TH)", "assay": "Example 2: TH immunopositive neuron count in SNc after 6-OHDA lesion, second set of rats", "settings": "3 μg GPE 2 hours after 6-OHDA; 2 levels of SNc counted; vs vehicle; FIG. 2", "method": "as §1, §2\nExample 2 was performed using a second set of rats (9 pairs), using the same experimental parameters except that only the immunopositive neurons at 2 levels of the SNc were counted."}}, "data": [{"substance": "Gly-Pro-Glu [GPE]", "values": [{"measurement": "number of TH immunopositive dopaminergic neurons", "setting": "[1]", "value": "increased"}, {"measurement": "percent cell survival of TH immunopositive neurons", "setting": "[2]", "value": "increased"}, {"measurement": "loss of TH immunopositive neurons in the SNc", "setting": "[3]; compared to the control group, 6-OHDA lesion", "value": "prevented the loss"}, {"measurement": "density of TH immunostaining in cytoplasm and processes of neurons", "setting": "[3]; ipsilateral SNc, GPE intraventricularly 2 hours after 6-OHDA, FIG. 4", "value": "restored"}, {"measurement": "neuronal survival (TH immunopositive neurons, R/L ratio)", "setting": "[3]; most caudal level of SNc, GPE 3 μg/15 μl into right lateral ventricle 2 hours after 6-OHDA, 2 weeks, mean±SEM", "value": "60±13.0", "unit": "%"}, {"measurement": "restoration in TH immunoreactivity (density of TH immunostaining, R/L ratio)", "setting": "[3]; most caudal level of SNc, GPE 3 μg/15 μl into right lateral ventricle 2 hours after 6-OHDA, 2 weeks, mean±SEM, FIG. 3", "value": "99.6±27", "unit": "%"}, {"measurement": "TH expression (number of TH immunopositive neurons)", "setting": "[4]", "value": "upregulation of TH expression"}]}]}
